29 compounds from ChEMBL document CHEMBL1212923, “Synthesis and in vivo evaluation of phenethylpiperazine amides: selective 5-hydroxytryptamine(2A) receptor antagonists for the treatment of insomnia” (J Med Chem, 2010) can be followed below.

Data set [1] concerns the target T1, 5-hydroxytryptamine receptor 2C (Homo sapiens, UniProt P28335).
T1 sequence (P28335 whole entry): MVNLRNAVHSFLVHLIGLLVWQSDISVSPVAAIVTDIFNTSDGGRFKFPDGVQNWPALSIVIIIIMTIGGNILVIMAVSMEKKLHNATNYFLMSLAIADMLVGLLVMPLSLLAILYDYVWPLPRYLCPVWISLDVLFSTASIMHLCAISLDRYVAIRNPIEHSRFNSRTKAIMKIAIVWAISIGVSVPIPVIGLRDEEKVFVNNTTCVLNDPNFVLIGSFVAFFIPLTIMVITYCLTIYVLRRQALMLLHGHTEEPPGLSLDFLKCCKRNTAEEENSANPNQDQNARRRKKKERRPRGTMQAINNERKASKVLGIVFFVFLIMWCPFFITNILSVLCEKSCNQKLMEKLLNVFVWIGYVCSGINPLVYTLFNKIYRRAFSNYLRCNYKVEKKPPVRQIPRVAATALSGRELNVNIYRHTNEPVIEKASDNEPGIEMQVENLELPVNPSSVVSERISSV
The class given is cell-based, HEK293.

Data set [2] has as its target 5-hydroxytryptamine receptor 2A (Homo sapiens, UniProt P28223). The experiment in a line: biochemical.
Description: Displacement of [125I]DOI from human recombinant 5HT2A receptor expressed in HEK293 cells after 1 hr by scintillation counting
Data set [3] deals with Rattus norvegicus. The experiment in a line: Inhibition of DOI-induced hypolocomotion in Sprague-Dawley rat at 3 mg/kg, po administered 25 mins before DOI challenge measured after 10 mins. It is filed as functional.
Data set [4] is described as follows: Half life in rat liver microsomes. It is filed as ADME, Microsome.
For data set [5], the target named is hERG (KCNH2) (Homo sapiens, UniProt Q12809). Description: Inhibition of human ERG at 3 uM by patch clamp electrophysiology assay. Background: The patch-clamp technique gives a direct electrical read-out from membranes.
hERG (KCNH2), sequence (Q12809 whole entry): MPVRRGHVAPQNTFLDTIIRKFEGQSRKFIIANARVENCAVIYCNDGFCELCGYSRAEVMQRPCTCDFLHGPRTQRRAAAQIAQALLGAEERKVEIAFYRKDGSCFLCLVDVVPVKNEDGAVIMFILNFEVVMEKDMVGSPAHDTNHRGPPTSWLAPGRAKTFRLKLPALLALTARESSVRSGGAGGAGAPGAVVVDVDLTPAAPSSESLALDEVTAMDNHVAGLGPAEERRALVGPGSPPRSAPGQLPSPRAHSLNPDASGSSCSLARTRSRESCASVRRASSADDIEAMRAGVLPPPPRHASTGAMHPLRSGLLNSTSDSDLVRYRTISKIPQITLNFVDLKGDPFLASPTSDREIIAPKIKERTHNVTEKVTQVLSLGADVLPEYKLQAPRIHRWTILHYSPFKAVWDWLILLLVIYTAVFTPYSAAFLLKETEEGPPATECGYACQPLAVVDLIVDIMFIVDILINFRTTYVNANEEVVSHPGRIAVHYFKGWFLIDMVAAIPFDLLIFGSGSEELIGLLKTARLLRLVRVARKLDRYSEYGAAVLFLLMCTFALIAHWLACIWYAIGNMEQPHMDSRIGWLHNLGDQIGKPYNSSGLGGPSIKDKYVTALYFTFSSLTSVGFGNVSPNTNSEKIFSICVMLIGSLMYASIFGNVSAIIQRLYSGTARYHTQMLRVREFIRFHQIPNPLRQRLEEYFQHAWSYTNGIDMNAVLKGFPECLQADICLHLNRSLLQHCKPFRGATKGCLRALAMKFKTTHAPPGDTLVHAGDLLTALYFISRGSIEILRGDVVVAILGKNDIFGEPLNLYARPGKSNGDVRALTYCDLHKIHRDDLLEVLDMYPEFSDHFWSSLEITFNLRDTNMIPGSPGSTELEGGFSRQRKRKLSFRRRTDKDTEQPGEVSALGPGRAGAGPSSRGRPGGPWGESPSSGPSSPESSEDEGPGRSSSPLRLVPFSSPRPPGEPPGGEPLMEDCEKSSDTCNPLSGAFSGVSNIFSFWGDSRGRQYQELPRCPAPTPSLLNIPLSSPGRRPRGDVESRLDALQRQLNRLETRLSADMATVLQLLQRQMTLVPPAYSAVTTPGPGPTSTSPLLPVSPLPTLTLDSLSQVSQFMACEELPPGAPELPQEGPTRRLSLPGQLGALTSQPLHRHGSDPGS
Data set [6] deals with Rattus norvegicus. Description: Inhibition of DOI-induced hypolocomotion in Sprague-Dawley rat at 1 mg/kg, po administered 25 mins before DOI challenge measured after 10 mins. It is filed as functional.
A short description of data set [7]: Ratio of drug level in brain to plasma in Sprague-Dawley rat at 3 mg/kg, po after 0.75 hrs. It is filed as ADME, organism-based. Details: dose 3 mg/kg, route oral.
Data set [8] in a line: Drug level in Sprague-Dawley rat brain at 3 mg/kg, po after 0.75 hrs. The class given is ADME, organism-based. Details: dose 3 mg/kg, route oral. Conditions: read-out: Drug uptake.
Data set [9] can be described thus: Drug level in Sprague-Dawley rat plasma at 3 mg/kg, po after 0.75 hrs. It is filed as ADME, organism-based. Set-up: dose 3 mg/kg, route oral. Conditions: read-out: Drug uptake.

5-hydroxytryptamine receptor 2A, sequence (P28223 whole entry): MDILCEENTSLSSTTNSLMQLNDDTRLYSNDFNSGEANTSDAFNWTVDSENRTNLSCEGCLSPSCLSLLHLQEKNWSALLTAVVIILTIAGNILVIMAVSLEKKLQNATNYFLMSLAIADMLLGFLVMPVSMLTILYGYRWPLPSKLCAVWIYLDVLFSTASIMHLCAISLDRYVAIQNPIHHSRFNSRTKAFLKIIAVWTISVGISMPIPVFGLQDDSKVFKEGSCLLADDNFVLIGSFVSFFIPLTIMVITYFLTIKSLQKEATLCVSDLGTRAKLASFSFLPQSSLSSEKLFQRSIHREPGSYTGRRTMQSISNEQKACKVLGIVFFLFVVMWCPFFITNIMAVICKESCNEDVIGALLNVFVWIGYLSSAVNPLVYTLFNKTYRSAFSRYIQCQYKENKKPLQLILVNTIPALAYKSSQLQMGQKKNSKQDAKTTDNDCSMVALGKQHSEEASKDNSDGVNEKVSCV

As for `CO/N=C(/CN1CCN(C(=O)c2nn(C)cc2Br)CC1)c1ccc(F)cc1`, the Ki (in general, the equilibrium dissociation constant of an inhibitor or competing ligand from its target) in data set [1] was 8.6 µM; in [2], 2.47 µM.
Consider `O=C(CN1CCN(C(=O)c2n[nH]cc2Cl)CC1)c1ccc(F)cc1`, for which the Ki in [1] worked out at 2.75 µM; in data set [2], 0.0185 µM.
For `N#Cc1c[nH]c2c(C(=O)N3CCN(CCc4ccc(F)cc4)CC3)cccc12` [PRUVANSERIN], the Ki amounted to 0.645 µM in data set [1] and 0.00048 µM in data set [2].
The corresponding values for `Cn1cc(Br)c(C(=O)N2CCN(CC(=O)c3ccc(C(F)(F)F)cc3)CC2)n1` are greater than 10 µM and 0.865 µM.
For `Cc1cc(C(=O)N2CCN(CC(=O)c3ccc(F)cc3)CC2)nn1C(C)(C)C`, in that order: greater than 10 µM and 0.0093 µM.
On to `Cc1cc(C(=O)N2CCN(CC(=O)c3ccc(F)cc3)CC2)[nH]n1`, for which the Ki in data set [1] was greater than 10 µM; in data set [2], 0.036 µM.
As for `Cn1ccc(C(=O)N2CCN(CC(=O)c3ccc(F)cc3)CC2)n1`, the Ki in data set [1] came out at 1.42 µM; in data set [2] it was 0.037 µM.
With `CCn1cc(Cl)c(C(=O)N2CCN(CC(=O)c3ccc(F)cc3)CC2)n1`, the Ki is greater than 10 µM in data set [1] and 0.0026 µM in data set [2]. For the same compound, in [3], the inhibition in vivo (commonly the relative decrease from the control value, in per cent) at 3 mg/kg came to 54%.
`COc1ccc(NC(=O)N2CCN(CCc3ccc(F)cc3)CC2)cc1-c1c(Cl)cnn1C`: the Ki in data set [1] is greater than 10 µM; in data set [2], 0.155 µM.
The corresponding values for `Cn1cc(Br)c(C(=O)N2CCN(CC(=O)c3ccccc3F)CC2)n1` are 9.8 µM and 0.27 µM.
Consider `Cc1[nH]nc(C(=O)N2CCN(CC(=O)c3ccc(F)cc3)CC2)c1Br`, for which the Ki stood at 3.57 µM in data set [1] and 0.0046 µM in data set [2].
Turning to `COc1ccc(CCN2CCN(C(=O)c3nn(C)cc3Br)CC2)cc1`, the Ki in data set [1] was greater than 10 µM; in [2], 0.408 µM.
For `Cn1cc(I)c(C(=O)N2CCN(CC(=O)c3ccc(F)cc3)CC2)n1`, in that order: 3.87 µM and 0.0045 µM.
With `Cn1cc(Br)c(C(=O)N2CCN(CCc3ccc(F)cc3F)CC2)n1`, the half-life (usually how long it takes for the measured level to halve) in data set [4] came out at 9 min. Also, the inhibition (in general, the change of the read-out against control, counted positive when it falls) at 3 µM in [5] was 80%. Also, the values for the Ki in data set [1] and in [2] were 2.82 µM and 0.0011 µM, respectively.
Regarding `Cn1cc(C(F)(F)F)c(C(=O)N2CCN(CC(=O)c3ccc(F)cc3)CC2)n1`, the inhibitory constant (Ki) in [1] was determined as 3.87 µM; in [2], 0.028 µM.
The corresponding values for `Cn1cc(Br)c(C(=O)N2CCN(CC(=O)c3ccc(F)cc3F)CC2)n1` are greater than 10 µM and 0.07 µM.
For `Cc1c(Br)c(C(=O)N2CCN(CC(=O)c3ccc(F)cc3)CC2)nn1C`, the half-life in [4] was found to be 29 min. The compound also returned an inhibition at 3 µM in [5] of 15%. Also, the Ki stood at 2.93 µM in data set [1] and 0.0046 µM in data set [2]. This compound also registered an inhibition in vivo at 3 mg/kg in data set [3] of 65%. In data set [6], this compound had an inhibition in vivo at 1 mg/kg of 22%.
Consider `Cc1cc(C(=O)N2CCN(CC(=O)c3ccc(F)cc3)CC2)nn1C`, for which the Ki is greater than 10 µM in data set [1] and 0.0085 µM in data set [2].
With `Cn1cc(Br)c(C(=O)N2CCN(CCc3ccccc3)CC2)n1`, the Ki in [1] is greater than 10 µM; in [2] it was 0.068 µM.
For `Cn1cc(Br)c(C(=O)N2CCN(CCc3cccc(F)c3)CC2)n1`, in that order: greater than 10 µM and 0.542 µM.
The corresponding values for `Cc1nc2n(c(=O)c1CCN1CCN(C(=O)c3nn(C)cc3Br)CC1)CCCC2` are greater than 10 µM and greater than 10 µM.
On to `Cn1cc(Br)c(C(=O)N2CCN(CC(O)c3ccc(F)cc3)CC2)n1` (stereo not drawn), for which the figures for the Ki in data set [1] and in [2] were greater than 10 µM and 0.368 µM, respectively.
For `Cn1cc(Br)c(C(=O)N2CCN(CC(=O)c3ccc(OC(F)(F)F)cc3)CC2)n1`, in that order: 5.61 µM and 6 µM.
On to `Cn1cc(Br)c(C(=O)N2CCN(CCc3ccc(Cl)cc3)CC2)n1`, for which the Ki in data set [1] was greater than 10 µM; in data set [2], 0.034 µM.
Regarding `COc1ccc(NC(=O)Nc2ccc(F)cc2F)cc1-c1c(Br)cnn1C` [NELOTANSERIN], the Ki in [1] was determined as 0.11 µM; in data set [2] it was 0.00051 µM. In addition, the Kp – broadly, the ratio of the level in a tissue or fluid to that in plasma or blood – at 0.75 h in data set [7] was determined as 0.65. The results for the concentration at 0.75 h in [8] and in [9] were 0.32 µg/mL and 0.488 µg/mL, respectively.
As for `Cn1cc(Br)c(C(=O)N2CCN(CCc3ccccc3F)CC2)n1`, the Ki is greater than 10 µM in data set [1] and 0.018 µM in data set [2].
The corresponding values for `Cn1cc(Br)c(C(=O)N2CCN(CCN3C(=O)c4ccccc4C3=O)CC2)n1` are greater than 10 µM and greater than 10 µM.
For `Cc1cc(C(=O)N2CCN(CC(=O)c3ccc(F)cc3)CC2)nn1-c1ccccc1`, the results for the Ki in [1] and in data set [2] were 3.71 µM and 0.011 µM, respectively.
The corresponding values for `O=C(Nc1[nH]ncc1Br)N1CCN(CCc2ccc(F)cc2)CC1` are greater than 10 µM and 0.088 µM.
